From US20240299559A1, “COMPOUNDS THAT MEDIATE PROTEIN DEGRADATION AND METHODS OF USE THEREOF” (Monte Rosa Therapeutics, Inc., priority 2021, published 2024)
pKi: −log10 of the molar value.

Experiments:
CRBN-DDB1 = CRBN-DDB1 (Homo sapiens, UniProt Q96SW2); experiment: Compound binding to CRBN by HTRF assay; conditions: CRBN-DDB1 2.5 nM, Cy5-Thalidomide 100 nM probe; Ki from geometric mean of IC50 by Cheng-Prustoff transformation
Experimental: Compound activity was monitored in a Homogenous Time-Resolved Fluorescence (HTRF) assay using 1-[5-({2-[2-(2-{[2-(2,6-dioxopiperidin-3-yl)-1,3-dioxo-2,3-dihydro-1H-isoindol-4-yl]oxy}acetamido)ethoxy]ethyl}carbamoyl)pentyl]-3,3-dimethyl-2-[(1E,3E)-5-[(2E)-1,3,3-trimethyl-5-sulfo-2,3-dihydro-1H-indol-2-ylidene]penta-1,3-dien-1-yl]-3H-indol-1-ium-5-sulfonate as a fluorescent probe. Biochemical assays were conducted in Greiner white 384 well HiBase plates (Cat. No 784075-25) in 10 μL total volume. A one pot detection solution of CRBN-DDB1 (2.5 nM), Anti-His Terbium Cryptate Gold (1×, PerkinElmer Cat. #: 61HI2TLB), and Cy5-Thalidomide (100 nM, Tenova Cat.: T52461) was prepared in 20 mM HEPES, 20 mM NaCl, 0.2 mM TCEP, 0.2 mM EDTA, and 0.005% Tween20 was dispensed to each assay plate. Compounds were stored in dry, ambient temperatures at 10 mM. A 10-point, 1:3 dilution series was prepared from 10 mM stock concentrations in Echo-compatible LDV plates. 10 nL of each compound dilution series was dispensed into assays wells using an Echo 650 (Labcyte inc. USA). 10 nL of 10 mM Lenalidomide was transferred into the active-control wells for the assay and 10 nL of DMSO was transferred into the neutral-control wells. The assay was then allowed to incubate for 30 min at ambient temperature after transferring compound. Plate measurements were taken on a Pherastar FSX (BMG Labtech, Germany) using the HTRF Red filter (Ex. 337 nm, em1:620 nm, em2:665 nm) (Flashes: 50, Integration time: 60-400 us, Z-height: 10 mm, Ratio-multipler: 10,000). The HTRF signal was then subsequently normalized to the neutral and active controls. Analysis and IC50 values were derived using KNIME analytics (KNIME Zurich) transformation and fitting within Collaborative Drug Discovery (Collaborative Drug Discovery USA). Ki was derived from the geometric mean of the IC50 values using the Cheng-Prustoff transformation.

CDK2 = target: T1, CDK2 (Homo sapiens, UniProt P24941); experiment: CDK2 HiBiT assay (degradation, Dmax); type: cell-based; conditions: HEK293 clonal lines with CRISPR KI HiBiT tag on CDK2, stably expressing LgBiT; 24 hours incubation
T1 construct: HEK293 clonal lines with CRISPR KI HiBiT tag on CDK2 proteins; host or cells: HEK293 clonal line with CRISPR knock-in HiBiT on CDK2, stably expressing LgBiT
Experimental: HEK293 clonal lines with CRISPR KI HiBiT tag on CDK2 proteins and stably expressing LgBiT protein were obtained from Promega (Madison, WI). Cells were plated at 5000 cells per well using Multiflo (BioTek) in 384-well white solid bottom plates (Corning, 3570BC) in 25 ul volume in DMEM media (DMEM, high glucose, HEPES, no phenol red (ThermoFisher Scientific, 21063029)) containing 10% FBS (Corning, 35-075-CV), 1% Penicillin/Streptomycin (ThermoFisher Scientific, 15140-122). Cells were incubated for 16 hours at 37° C., 5% CO2. 75 nL of a compound at 30 μM were dosed into the plate using an Echo® 650 liquid handler (Labcyte). Cells were incubated at 37° C., 5% CO2 for 24 hours. 5 ul of HiBiT Lysis Reagent (Promega, N3030) is added using Combi Multidrop (ThermoFisher Scientific), plates are incubated for 15′ at 37° C., 5% CO2 and then signal was read on a Pherastar FSX using “LUM plus” optic module.
Analysis was performed in Scinamic (Scinamic, Cambridge, MA). Luminescence response (R) was calculated by the formula: response=100*(S−N)/(P−N) where S is the signal of the well, N and P the mean negative and positive control values respectively of the same plate. The luminescence response was then fitted in Scinamic using a 3-parameter agonist logistic fit (hillslope=1, EC50>0, top/bottom unconstrained).

Chain of CRBN-DDB1 (Q96SW2 whole entry): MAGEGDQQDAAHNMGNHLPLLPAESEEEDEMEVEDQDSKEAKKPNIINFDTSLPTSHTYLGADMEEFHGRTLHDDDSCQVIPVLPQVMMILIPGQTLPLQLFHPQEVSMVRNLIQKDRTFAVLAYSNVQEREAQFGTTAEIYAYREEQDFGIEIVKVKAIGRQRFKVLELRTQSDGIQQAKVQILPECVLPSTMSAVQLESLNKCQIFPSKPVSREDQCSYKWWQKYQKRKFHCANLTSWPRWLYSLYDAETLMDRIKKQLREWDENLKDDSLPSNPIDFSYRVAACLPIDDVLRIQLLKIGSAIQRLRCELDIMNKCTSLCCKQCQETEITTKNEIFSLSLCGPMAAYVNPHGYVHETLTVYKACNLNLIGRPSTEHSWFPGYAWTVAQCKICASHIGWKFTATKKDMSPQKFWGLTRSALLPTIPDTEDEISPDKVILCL
Chain of CRBN-DDB1 (Q16531 whole entry partner): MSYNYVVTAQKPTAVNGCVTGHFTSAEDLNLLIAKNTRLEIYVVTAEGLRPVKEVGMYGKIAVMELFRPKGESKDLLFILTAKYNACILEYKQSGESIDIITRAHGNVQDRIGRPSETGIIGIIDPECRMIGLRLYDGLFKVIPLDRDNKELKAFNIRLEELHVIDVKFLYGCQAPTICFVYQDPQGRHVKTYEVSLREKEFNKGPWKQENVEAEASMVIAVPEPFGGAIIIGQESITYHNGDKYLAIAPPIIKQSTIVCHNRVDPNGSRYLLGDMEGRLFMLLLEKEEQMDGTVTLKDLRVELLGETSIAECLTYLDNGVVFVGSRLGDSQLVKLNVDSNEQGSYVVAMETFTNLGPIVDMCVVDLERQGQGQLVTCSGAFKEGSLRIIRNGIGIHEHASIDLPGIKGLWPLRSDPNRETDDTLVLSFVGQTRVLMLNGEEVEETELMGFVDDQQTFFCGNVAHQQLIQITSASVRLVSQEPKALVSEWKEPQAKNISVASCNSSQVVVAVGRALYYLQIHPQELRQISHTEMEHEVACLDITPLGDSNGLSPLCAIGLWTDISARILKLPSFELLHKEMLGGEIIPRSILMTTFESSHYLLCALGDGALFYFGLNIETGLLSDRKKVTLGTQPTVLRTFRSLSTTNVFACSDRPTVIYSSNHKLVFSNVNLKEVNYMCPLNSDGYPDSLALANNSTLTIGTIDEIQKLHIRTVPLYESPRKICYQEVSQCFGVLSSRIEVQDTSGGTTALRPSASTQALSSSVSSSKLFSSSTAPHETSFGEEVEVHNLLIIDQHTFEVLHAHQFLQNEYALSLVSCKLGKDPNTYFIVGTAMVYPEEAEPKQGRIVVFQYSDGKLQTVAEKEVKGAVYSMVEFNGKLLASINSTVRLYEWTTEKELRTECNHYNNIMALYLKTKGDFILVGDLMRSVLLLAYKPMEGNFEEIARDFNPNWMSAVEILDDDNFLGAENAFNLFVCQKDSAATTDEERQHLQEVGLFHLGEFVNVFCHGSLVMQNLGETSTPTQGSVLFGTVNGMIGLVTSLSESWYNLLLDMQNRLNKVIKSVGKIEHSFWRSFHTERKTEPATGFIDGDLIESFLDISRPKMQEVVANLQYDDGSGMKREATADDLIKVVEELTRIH

O=C1CCC(N2Cc3ccc(CNC(=O)OCc4cccc(-c5ccc(F)cc5)n4)cc3C2=O)C(=O)N1 (centres unmarked) [Compound 4, (6-(4-fluorophenyl)pyridin-2-yl)methyl((2-(2,6-dioxopiperidin-3-yl)-3-oxoisoindolin-5-yl)methyl)carbamate]
pKi (CRBN-DDB1): 6.00 to 7.00
Dmax (CDK2): 10 to 50%

CCOc1c(C)cc(COC(=O)NCc2ccc3c(c2)C(=O)N(C2CCC(=O)NC2=O)C3)cc1C (centres unmarked) [Compound 34, (4-ethoxy-3,5-dimethylphenyl)methyl N-{[2-(2,6-dioxopiperidin-3-yl)-3-oxo-2,3-dihydro-1H-isoindol-5-yl]methyl}carbamate]
pKi (CRBN-DDB1): ≥ 7.00
Dmax (CDK2): 10 to 50%

O=C1CCC(N2Cc3ccc(CNC(=O)OCc4cc(-c5ccccc5)ccn4)cc3C2=O)C(=O)N1 (centres unmarked) [Compound 14, (4-phenylpyridin-2-yl)methyl ((2-(2,6-dioxopiperidin-3-yl)-3-oxoisoindolin-5-yl)methyl)carbamate]
pKi (CRBN-DDB1): 6.00 to 7.00
Dmax (CDK2): 10 to 50%

O=C1CCC(N2Cc3ccc(CNC(=O)OCc4ccc(C5CC5)cc4)cc3C2=O)C(=O)N1 (centres unmarked) [Compound 64, (4-cyclopropylphenyl)methyl N-{[2-(2,6-dioxopiperidin-3-yl)-3-oxo-2,3-dihydro-1H-isoindol-5-yl]methyl}carbamate]
pKi (CRBN-DDB1): 6.00 to 7.00
Dmax (CDK2): 10 to 50%

O=C1CCC(N2Cc3ccc(CNC(=O)OCc4ccc(OC(F)(F)F)cc4)cc3C2=O)C(=O)N1 (centres unmarked) [Compound 69, 4-(trifluoromethoxy)benzyl ((2-(2,6-dioxopiperidin-3-yl)-3-oxoisoindolin-5-yl)methyl)carbamate]
pKi (CRBN-DDB1): 6.00 to 7.00
Dmax (CDK2): 10 to 50%

O=C1CCC(N2Cc3ccc(CNC(=O)OCc4cccc(-c5ccc(F)cc5)c4)cc3C2=O)C(=O)N1 (centres unmarked) [Compound 51, {4′-fluoro-[1,1′-biphenyl]-3-yl}methyl N-{[2-(2,6-dioxopiperidin-3-yl)-3-oxo-2,3-dihydro-1H-isoindol-5-yl]methyl}carbamate]
pKi (CRBN-DDB1): 6.00 to 7.00
Dmax (CDK2): 10 to 50%

O=C1CCC(N2Cc3ccc(CNC(=O)OCc4ccc(OCC5CC5)cc4)cc3C2=O)C(=O)N1 (centres unmarked) [Compound 40, [4-(cyclopropylmethoxy)phenyl]methyl N-{[2-(2,6-dioxopiperidin-3-yl)-3-oxo-2,3-dihydro-1H-isoindol-5-yl]methyl}carbamate]
pKi (CRBN-DDB1): ≥ 7.00
Dmax (CDK2): 10 to 50%

O=C1CCC(N2Cc3ccc(CNC(=O)OCc4cccc(-c5cccc(F)c5)c4)cc3C2=O)C(=O)N1 (centres unmarked) [Compound 10, (3′-fluoro-[1,1′-biphenyl]-3-yl)methyl ((2-(2,6-dioxopiperidin-3-yl)-3-oxoisoindolin-5-yl)methyl)carbamate]
pKi (CRBN-DDB1): 6.00 to 7.00
Dmax (CDK2): 50 to 80%

O=C1CCC(N2Cc3ccc(CNC(=O)OCc4cccc(SC(F)(F)F)c4)cc3C2=O)C(=O)N1 (centres unmarked) [Compound 56, {3-[(trifluoromethyl)sulfanyl]phenyl}methyl N-{[2-(2,6-dioxopiperidin-3-yl)-3-oxo-2,3-dihydro-1H-isoindol-5-yl]methyl}carbamate]
pKi (CRBN-DDB1): ≥ 7.00
Dmax (CDK2): 10 to 50%

COc1ccc(COC(=O)NCc2ccc3c(c2)C(=O)N(C2CCC(=O)NC2=O)C3)cc1C(C)C (centres unmarked) [Compound 47, [4-methoxy-3-(propan-2-yl)phenyl]methyl N-{[2-(2,6-dioxopiperidin-3-yl)-3-oxo-2,3-dihydro-1H-isoindol-5-yl]methyl}carbamate]
pKi (CRBN-DDB1): ≥ 7.00
Dmax (CDK2): 10 to 50%

O=C1CCC(N2Cc3ccc(CNC(=O)OCc4cccc(-c5cccc(C(F)(F)F)c5)c4)cc3C2=O)C(=O)N1 (centres unmarked) [Compound 11, (3′-(trifluoromethyl)-[1,1′-biphenyl]-3-yl)methyl ((2-(2,6-dioxopiperidin-3-yl)-3-oxoisoindolin-5-yl)methyl)carbamate]
pKi (CRBN-DDB1): 6.00 to 7.00
Dmax (CDK2): 50 to 80%

O=C1CCC(N2Cc3ccc(CNC(=O)OCc4cccc(-c5ccc(C(F)(F)F)cc5)c4)cc3C2=O)C(=O)N1 (centres unmarked) [Compound 9, (4′-(trifluoromethyl)-[1,1′-biphenyl]-3-yl)methyl((2-(2,6-dioxopiperidin-3-yl)-3-oxoisoindolin-5-yl)methyl)carbamate]
pKi (CRBN-DDB1): 6.00 to 7.00
Dmax (CDK2): 50 to 80%

O=C1CCC(N2Cc3ccc(CNC(=O)OCc4ccc(C5CCCO5)cc4)cc3C2=O)C(=O)N1 (centres unmarked) [Compound 18]
pKi (CRBN-DDB1): 6.00 to 7.00
Dmax (CDK2): 10 to 50%

CSc1cccc(COC(=O)NCc2ccc3c(c2)C(=O)N(C2CCC(=O)NC2=O)C3)c1 (centres unmarked) [Compound 35, [3-(methylsulfanyl)phenyl]methyl N-{[2-(2,6-dioxopiperidin-3-yl)-3-oxo-2,3-dihydro-1H-isoindol-5-yl]methyl}carbamate]
pKi (CRBN-DDB1): ≥ 7.00
Dmax (CDK2): 10 to 50%

O=C1CCC(N2Cc3ccc(CNC(=O)OCc4cccc(-c5cccnc5)c4)cc3C2=O)C(=O)N1 (centres unmarked) [Compound 15, 3-(pyridin-3-yl)benzyl ((2-(2,6-dioxopiperidin-3-yl)-3-oxoisoindolin-5-yl)methyl)carbamate]
pKi (CRBN-DDB1): ≥ 7.00
Dmax (CDK2): 10 to 50%

O=C1CCC(N2Cc3ccc(CNC(=O)OCc4ccc(C5(F)COC5)cc4)cc3C2=O)C(=O)N1 (centres unmarked) [Compound 48, [4-(3-fluorooxetan-3-yl)phenyl]methyl N-{[2-(2,6-dioxopiperidin-3-yl)-3-oxo-2,3-dihydro-1H-isoindol-5-yl]methyl}carbamate]
pKi (CRBN-DDB1): ≥ 7.00
Dmax (CDK2): 10 to 50%

O=C1CCC(N2Cc3ccc(CNC(=O)OCc4ccc(OCC(F)(F)F)cc4)cc3C2=O)C(=O)N1 (centres unmarked) [Compound 62, [4-(2,2,2-trifluoroethoxy)phenyl]methyl N-{[2-(2,6-dioxopiperidin-3-yl)-3-oxo-2,3-dihydro-1H-isoindol-5-yl]methyl}carbamate]
pKi (CRBN-DDB1): ≥ 7.00
Dmax (CDK2): 10 to 50%

O=C1CCC(N2Cc3ccc(CNC(=O)OCc4cncc(-c5ccccc5)c4)cc3C2=O)C(=O)N1 (centres unmarked) [Compound 13, (5-phenylpyridin-3-yl)methyl ((2-(2,6-dioxopiperidin-3-yl)-3-oxoisoindolin-5-yl)methyl)carbamate]
pKi (CRBN-DDB1): ≥ 7.00
Dmax (CDK2): 10 to 50%

O=C1CCC(N2Cc3ccc(CCNC(=O)OCc4ccc(OC5CCOCC5)nc4)cc3C2=O)C(=O)N1 (centres unmarked) [Compound 1, (6-((tetrahydro-2H-pyran-4-yl)oxy)pyridin-3-yl)methyl (2-(2-(2,6-dioxopiperidin-3-yl)-3-oxoisoindolin-5-yl)ethyl)carbamate]
pKi (CRBN-DDB1): 6.00 to 7.00
Dmax (CDK2): 10 to 50%

O=C1CCC(N2Cc3ccc(CNC(=O)OCc4ccc(CN5CCCCC5)cc4)cc3C2=O)C(=O)N1 (centres unmarked) [Compound 53, {4-[(piperidin-1-yl)methyl]phenyl}methyl N-{[2-(2,6-dioxopiperidin-3-yl)-3-oxo-2,3-dihydro-1H-isoindol-5-yl]methyl}carbamate]
pKi (CRBN-DDB1): 6.00 to 7.00
Dmax (CDK2): ≤ 10%

CCC(COC(=O)NCc1ccc2c(c1)C(=O)N(C1CCC(=O)NC1=O)C2)c1ccccc1 (centres unmarked) [Compound 67, 2-phenylbutyl N-{[2-(2,6-dioxopiperidin-3-yl)-3-oxo-2,3-dihydro-1H-isoindol-5-yl]methyl}carbamate]
pKi (CRBN-DDB1): 6.00 to 7.00
Dmax (CDK2): 10 to 50%

CC(C)(C)c1cccc(COC(=O)NCc2ccc3c(c2)C(=O)N(C2CCC(=O)NC2=O)C3)c1 (centres unmarked) [Compound 45, (3-tert-butylphenyl)methyl N-{[2-(2,6-dioxopiperidin-3-yl)-3-oxo-2,3-dihydro-1H-isoindol-5-yl]methyl}carbamate]
pKi (CRBN-DDB1): ≥ 7.00
Dmax (CDK2): 10 to 50%
